Assay results taken from US7427591B2, “Suppression of immune response via inhibition of cathepsin S” (Massachusetts Institute of Technology, priority 1996, dated 2008).

Tests used:
cathepsin D = cathepsin D (Homo sapiens, UniProt P07339); conditions: Alteri et al. 1993; cited from earlier work
cathepsin S = cathepsin S (Homo sapiens, UniProt P25774); test: Active site labeling of cysteine proteases with Cbz-[125I]-Tyr-Ala-CN2 in HOM2 cells: cathepsin S; format: cell-based
cathepsin B = cathepsin B (Homo sapiens, UniProt P07858); test: Active site labeling of cysteine proteases with Cbz-[125I]-Tyr-Ala-CN2 in HOM2 cells: cathepsin B; format: cell-based
Excerpt: SIDS, 1% Triton X-100 on ice.

human cathepsin H = molecular target: T1, human cathepsin H (Homo sapiens, UniProt P09668); test: Inhibition of purified human cathepsin H; format: biochemical; conditions: purified enzyme
T1 construct: purchased Calbiochem-Novabiochem Corp., San Diego, Calif
T1 sequence (P09668 98-335): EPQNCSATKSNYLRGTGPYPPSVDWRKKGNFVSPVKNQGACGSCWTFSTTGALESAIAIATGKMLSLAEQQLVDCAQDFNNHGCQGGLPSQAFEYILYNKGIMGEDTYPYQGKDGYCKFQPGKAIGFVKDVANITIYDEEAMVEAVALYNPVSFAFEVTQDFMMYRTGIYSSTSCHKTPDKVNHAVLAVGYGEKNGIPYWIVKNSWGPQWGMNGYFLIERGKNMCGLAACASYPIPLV
Excerpt: Purified human cathepsin H (obtained from Calbiochem-Novabiochem Corp., San Diego, Calif.) was not inhibited with LHVS nor did it display any proteolytic activity against immunoprecipitated αβIi, implying that cathepsin H is not an essential protease for Ii degradation.

pemphigus vulgaris = test: Treating pemphigus vulgaris in a human; format: in vivo; conditions: topical ointment 50 mg/gm, daily
Procedure: The dose is 50 mg/gm of ointment and is applied daily to the affected area.

multiple sclerosis = test: Treating multiple sclerosis in a human; conditions: intravenous injection once a day, 500 mg/70 kg body weight
[1] = test system: Ii processing in HOM2 cells; test: 35S pulse/chase of HOM2 cells, Tu36 immunoprecipitation, SDS-PAGE: Ii processing and SDS-stable class II peptide complexes; format: cell-based, human; conditions: E64D
Excerpt: Lysates were precleared with protein A-agarose.
Samples were eluted with SDS-PAGE sample buffer.

[2] = test system: Ii processing in HOM2 cells; conditions: leupeptin; Neefjes and Ploegh 1992; cited from earlier work

Sequence of cathepsin S (P25774 115-331): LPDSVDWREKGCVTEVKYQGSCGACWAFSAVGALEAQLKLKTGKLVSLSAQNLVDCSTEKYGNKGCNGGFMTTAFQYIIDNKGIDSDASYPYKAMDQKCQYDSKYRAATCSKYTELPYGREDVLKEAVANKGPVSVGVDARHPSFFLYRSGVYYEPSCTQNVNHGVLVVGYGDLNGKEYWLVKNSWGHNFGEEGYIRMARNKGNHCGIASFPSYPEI
Sequence of cathepsin D (P07339 65-412, species assumed): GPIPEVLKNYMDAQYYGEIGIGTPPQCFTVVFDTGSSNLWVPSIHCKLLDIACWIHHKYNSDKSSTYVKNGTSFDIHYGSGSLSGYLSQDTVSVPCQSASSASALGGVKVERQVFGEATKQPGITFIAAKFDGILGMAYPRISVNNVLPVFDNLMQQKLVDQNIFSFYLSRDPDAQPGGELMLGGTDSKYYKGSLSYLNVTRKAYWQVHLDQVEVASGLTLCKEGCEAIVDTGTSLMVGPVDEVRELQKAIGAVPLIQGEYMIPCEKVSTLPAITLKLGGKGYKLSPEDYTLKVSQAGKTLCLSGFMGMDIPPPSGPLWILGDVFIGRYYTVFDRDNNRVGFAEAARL

For `CC(C)[C@H](NC(=O)[C@H](Cc1ccccc1)C[C@H](O)[C@H](Cc1ccccc1)NC(=O)OC(C)(C)C)C(=O)N[C@@H](Cc1ccccc1)C(=O)N1CCOCC1` [CGP 53437], which “inhibits cathepsin D (potency range)” value (cathepsin D) is on record?
The value was “nanomolar range”.

With `CC(C)C[C@H](NC(=O)N1CCOCC1)C(=O)N[C@H](/C=C/S(=O)(=O)c1ccccc1)CCc1ccccc1` [LHVS, morpholinurea-leucine-homophenylalanine-vinylsulfone phenyl] as the molecule, how does the “concentrations that specifically inhibit cathepsin S, leaving other cysteine proteases functionally active” value (cathepsin S) read?
Its value is 1 to 5 nM.

And the “labeling of cathepsin S with Cbz-[125I]-Tyr-Ala-CN2” value (cathepsin S; LHVS 1 nM, 1 hour preincubation at 37° C.)?
The value was “effectively inhibited”.

What about the “labeling of cathepsin B with Cbz-[125I]-Tyr-Ala-CN2” value (cathepsin B; LHVS 1 nM) of the same molecule?
Its value is “but not cathepsin B”.

What about the “labeling of cathepsin B with Cbz-[125I]-Tyr-Ala-CN2” value (cathepsin B; LHVS 5 nM) of the same molecule?
Its value is “decreased, although some activity remained”.

And the “inhibition of purified human cathepsin H” value (human cathepsin H)?
Its value is “not inhibited”.

For N-(carboxybenzyl)-Arg-Met-vinylsulfone, which “effect on pemphigus vulgaris” value (pemphigus vulgaris) is on record?
The value was “alleviates the effects of pemphigus vulgaris”.

For Leu-Arg-Met-vinylsulfone, which “effect on multiple sclerosis” value (multiple sclerosis) is on record?
Its value is “alleviates the effects of multiple sclerosis”.

For `CCOC(=O)[C@H]1O[C@@H]1C(=O)N[C@@H](CC(C)C)C(=O)NCCC(C)C` (relative stereo) [E64D], which SDS-stable dimer formation [1] is on record?
Its SDS-stable dimer formation is “decrease in SDS-stable dimer formation”.

Which “SDS-stable complexes (peptide-loaded αβ-dimers)” value [2] does the source give for `CC(=O)N[C@@H](CC(C)C)C(=O)N[C@@H](CC(C)C)C(=O)N[C@H](C=O)CCCNC(=N)N` [leupeptin] here?
Its value is “decrease”.
